Experimental data as given in patent US9839627B2, “Methods of treating fragile X associated disorders, ADHD, and autism spectrum disorder” (Neurovance, Inc., priority 2013, dated 2017).

What was measured:
[1] = molecular target: T1, monoamine oxidase A (MAO A) (Homo sapiens, UniProt P21397); test: metabolic pathway
T1 sequence (P21397 1-527): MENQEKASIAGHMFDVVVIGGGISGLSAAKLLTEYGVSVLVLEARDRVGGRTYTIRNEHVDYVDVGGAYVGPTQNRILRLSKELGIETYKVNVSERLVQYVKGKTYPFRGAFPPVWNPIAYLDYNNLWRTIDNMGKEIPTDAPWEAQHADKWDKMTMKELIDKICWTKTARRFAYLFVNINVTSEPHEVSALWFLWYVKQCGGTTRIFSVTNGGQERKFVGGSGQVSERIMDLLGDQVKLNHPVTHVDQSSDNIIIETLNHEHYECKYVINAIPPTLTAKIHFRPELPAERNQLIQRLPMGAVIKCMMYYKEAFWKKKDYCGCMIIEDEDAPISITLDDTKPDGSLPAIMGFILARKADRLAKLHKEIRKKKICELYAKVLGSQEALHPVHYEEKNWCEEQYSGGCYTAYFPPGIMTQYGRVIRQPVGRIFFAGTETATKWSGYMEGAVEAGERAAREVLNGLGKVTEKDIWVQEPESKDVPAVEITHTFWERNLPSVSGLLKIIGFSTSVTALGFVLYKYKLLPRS

dopamine reuptake (DA) = dopamine reuptake (DA) (Homo sapiens, UniProt Q01959); test: dopamine reuptake inhibition; assay type: biochemical; conditions: fraction of the potency towards NE reuptake
[2] = molecular target: serotonin reuptake (5-HT) (Homo sapiens, UniProt P31645); test: serotonin reuptake inhibition; assay type: biochemical; conditions: fraction of the potency towards NE reuptake
[3] = molecular target: norepinephrine reuptake (NE) (Homo sapiens, UniProt P23975); test: norepinephrine reuptake inhibition; assay type: biochemical; conditions: unbalanced triple reuptake inhibitor; compared with DA and 5-HT reuptake
individuals with FXS = conditions: reported trials; failures due to aggravation of irritable, moody/perseverative and aggressive behaviors; cited from earlier work

dopamine reuptake (DA), sequence (Q01959 whole entry): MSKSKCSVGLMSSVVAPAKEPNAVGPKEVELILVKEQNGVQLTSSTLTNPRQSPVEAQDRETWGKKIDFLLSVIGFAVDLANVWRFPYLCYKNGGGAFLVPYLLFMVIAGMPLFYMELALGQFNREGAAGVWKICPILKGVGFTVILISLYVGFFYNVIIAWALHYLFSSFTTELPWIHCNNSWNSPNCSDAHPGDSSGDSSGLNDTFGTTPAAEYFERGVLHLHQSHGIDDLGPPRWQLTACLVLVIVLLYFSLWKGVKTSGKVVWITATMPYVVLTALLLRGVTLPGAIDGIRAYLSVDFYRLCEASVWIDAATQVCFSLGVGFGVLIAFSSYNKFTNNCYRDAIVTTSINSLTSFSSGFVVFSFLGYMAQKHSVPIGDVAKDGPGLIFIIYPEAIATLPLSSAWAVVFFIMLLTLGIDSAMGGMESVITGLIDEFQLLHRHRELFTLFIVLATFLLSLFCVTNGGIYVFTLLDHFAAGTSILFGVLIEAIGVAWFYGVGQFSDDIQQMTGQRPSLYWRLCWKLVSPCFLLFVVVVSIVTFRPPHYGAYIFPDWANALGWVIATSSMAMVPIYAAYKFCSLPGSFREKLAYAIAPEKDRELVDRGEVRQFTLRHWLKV
serotonin reuptake (5-HT), sequence (P31645 whole entry): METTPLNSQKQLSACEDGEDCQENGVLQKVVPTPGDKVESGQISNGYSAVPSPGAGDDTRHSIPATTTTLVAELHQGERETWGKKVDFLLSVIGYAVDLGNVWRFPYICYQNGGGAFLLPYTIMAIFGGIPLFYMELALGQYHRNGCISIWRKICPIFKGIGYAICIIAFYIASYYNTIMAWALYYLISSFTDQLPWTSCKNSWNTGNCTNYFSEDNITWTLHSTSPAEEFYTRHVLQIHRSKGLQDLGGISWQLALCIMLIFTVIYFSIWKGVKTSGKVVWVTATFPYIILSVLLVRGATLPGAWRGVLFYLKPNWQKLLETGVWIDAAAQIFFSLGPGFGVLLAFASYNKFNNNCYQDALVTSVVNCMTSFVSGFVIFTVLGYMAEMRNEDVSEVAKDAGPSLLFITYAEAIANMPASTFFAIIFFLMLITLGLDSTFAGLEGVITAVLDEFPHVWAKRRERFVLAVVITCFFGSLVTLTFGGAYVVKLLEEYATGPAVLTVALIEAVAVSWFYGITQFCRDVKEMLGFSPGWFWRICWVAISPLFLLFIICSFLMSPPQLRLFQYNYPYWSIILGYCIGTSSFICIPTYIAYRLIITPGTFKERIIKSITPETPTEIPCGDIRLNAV
norepinephrine reuptake (NE), sequence (P23975 whole entry): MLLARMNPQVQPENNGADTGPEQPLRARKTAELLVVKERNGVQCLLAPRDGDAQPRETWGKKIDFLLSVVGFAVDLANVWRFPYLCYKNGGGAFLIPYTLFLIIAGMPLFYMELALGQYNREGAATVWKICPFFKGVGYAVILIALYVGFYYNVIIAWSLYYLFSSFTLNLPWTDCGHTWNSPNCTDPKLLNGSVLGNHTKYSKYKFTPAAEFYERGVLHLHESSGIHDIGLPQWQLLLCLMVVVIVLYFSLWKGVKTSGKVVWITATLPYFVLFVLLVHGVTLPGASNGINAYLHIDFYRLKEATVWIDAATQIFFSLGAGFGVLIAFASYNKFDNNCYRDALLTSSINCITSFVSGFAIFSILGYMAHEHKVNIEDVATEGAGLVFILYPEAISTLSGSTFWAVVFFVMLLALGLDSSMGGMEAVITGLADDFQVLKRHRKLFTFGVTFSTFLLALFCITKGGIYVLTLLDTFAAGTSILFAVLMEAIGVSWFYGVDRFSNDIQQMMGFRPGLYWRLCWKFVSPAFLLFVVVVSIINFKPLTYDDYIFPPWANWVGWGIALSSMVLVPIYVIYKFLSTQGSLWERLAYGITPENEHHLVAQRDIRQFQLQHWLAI

Structure (SMILES) | primary route of metabolism [1] | potency towards dopamine reuptake relative to norepinephrine reuptake (dopamine reuptake (DA)) | potency towards serotonin reuptake relative to norepinephrine reuptake [2] | relative potency towards norepinephrine reuptake [3] | outcome of treatment in individuals with FXS (individuals with FXS)
c1ccc2cc([C@]34CNC[C@H]3C4)ccc2c1 [(1R,5S)-1-(naphthalen-2-yl)-3-azabicyclo[3.1.0]hexane] | primarily metabolized by monoamine oxidase A (MAO A) | one-sixth | one-fourteenth | most potency | 
O=C1CCc2ccc(OCCCCN3CCN(c4cccc(Cl)c4Cl)CC3)cc2N1 [Aripiprazole] |  |  |  |  | some individuals with FXS failed treatment
CNCC[C@@H](Oc1ccccc1C)c1ccccc1 [atomoxetine] |  |  |  |  | unsuccessful
